Assay results as given in ChEMBL document CHEMBL1212697, “High-content single-cell drug screening with phosphospecific flow cytometry” (Nat Chem Biol, 2008).
The source made the active and inactive calls. No cut-off for these calls is given here.

Columns and labels:
[1] = target: T1, Janus Kinase (JAK) (Homo sapiens) (UniProt P52333+P23458+O60674+P29597); experiment: Inhibition of JAK-mediated interferon-gamma/anisomycin-induced Stat1 phosphorylation in human U937 cells by Phospho-Flow cytometry; assay type: cell-based; settings: U-937
[2] = Inhibition of JAK-mediated IL6-induced Stat1 phosphorylation in BALB/c mouse B cells by Phospho-Flow cytometry; assay type: cell-based
[3] = Inhibition of JAK-mediated IL10-induced Stat3 phosphorylation in BALB/c mouse B cells by Phospho-Flow cytometry; assay type: cell-based
[4] = target: T1, Janus Kinase (JAK) (Homo sapiens); experiment: Inhibition of JAK-mediated GM-CSF-induced Stat5 phosphorylation in human U937 cells by Phospho-Flow cytometry at 20 uM; assay type: cell-based; settings: U-937
[5] = target: T1, Janus Kinase (JAK) (Homo sapiens); experiment: Inhibition of JAK-mediated interferon-gamma-induced Stat1 phosphorylation in human U937 cells by Phospho-Flow cytometry at 20 uM; assay type: cell-based; settings: U-937
MAP kinase p38 = MAP kinase p38 (Homo sapiens, UniProt O15264+Q15759+Q16539+P53778); experiment: Inhibition of anisomycin-induced p38 phosphorylation in human U937 cells by Phospho-Flow cytometry at 20 uM; assay type: cell-based; settings: U-937
[6] = Inhibition of JAK-mediated IL4-induced Stat5 phosphorylation in BALB/c mouse CD11b-int macrophages by Phospho-Flow cytometry
[7] = Inhibition of JAK-mediated interferon-gamma-induced Stat1 phosphorylation in BALB/c mouse B cells by Phospho-Flow cytometry; assay type: cell-based
[8] = Inhibition of JAK-mediated IL6-induced Stat3 phosphorylation in BALB/c mouse B cells by Phospho-Flow cytometry; assay type: cell-based
[9] = Inhibition of JAK-mediated IL15-induced Stat5 phosphorylation in BALB/c mouse B cells by Phospho-Flow cytometry; assay type: cell-based
[10] = Inhibition of JAK-mediated IL7-induced Stat5 phosphorylation in BALB/c mouse B cells by Phospho-Flow cytometry; assay type: cell-based
[11] = Inhibition of JAK-mediated IL6-induced Stat3 phosphorylation in BALB/c mouse CD4+ T cells by Phospho-Flow cytometry; assay type: cell-based; settings: T-cell
[12] = Inhibition of JAK-mediated IL15-induced Stat5 phosphorylation in BALB/c mouse CD4+ T cells by Phospho-Flow cytometry; assay type: cell-based; settings: T-cell
[13] = Inhibition of JAK-mediated IL7-induced Stat5 phosphorylation in BALB/c mouse CD4+ T cells by Phospho-Flow cytometry; assay type: cell-based; settings: T-cell
[14] = Inhibition of JAK-mediated IL4-induced Stat6 phosphorylation in BALB/c mouse CD4+ T cells by Phospho-Flow cytometry; assay type: cell-based; settings: T-cell
[15] = Inhibition of JAK-mediated IL4-induced Stat5 phosphorylation in BALB/c mouse CD4+ T cells by Phospho-Flow cytometry; assay type: cell-based; settings: T-cell
[16] = Inhibition of JAK-mediated IL6-induced Stat1 phosphorylation in BALB/c mouse CD8+ T cells by Phospho-Flow cytometry; assay type: cell-based; settings: T-cell
[17] = Inhibition of JAK-mediated IL10-induced Stat3 phosphorylation in BALB/c mouse CD8+ T cells by Phospho-Flow cytometry; assay type: cell-based; settings: T-cell
[18] = Inhibition of JAK-mediated IL6-induced Stat3 phosphorylation in BALB/c mouse CD8+ T cells by Phospho-Flow cytometry; assay type: cell-based; settings: T-cell
[19] = Inhibition of JAK-mediated IL15-induced Stat5 phosphorylation in BALB/c mouse CD8+ T cells by Phospho-Flow cytometry; assay type: cell-based; settings: T-cell
[20] = Inhibition of JAK-mediated IL7-induced Stat5 phosphorylation in BALB/c mouse CD8+ T cells by Phospho-Flow cytometry; assay type: cell-based; settings: T-cell
[21] = Inhibition of JAK-mediated IL4-induced Stat6 phosphorylation in BALB/c mouse CD8+ T cells by Phospho-Flow cytometry; assay type: cell-based; settings: T-cell
[22] = Inhibition of JAK-mediated IL4-induced Stat5 phosphorylation in BALB/c mouse CD8+ T cells by Phospho-Flow cytometry; assay type: cell-based; settings: T-cell
[23] = Inhibition of JAK-mediated IL6-induced Stat1 phosphorylation in BALB/c mouse CD11b-hi neutrophils by Phospho-Flow cytometry
[24] = Inhibition of JAK-mediated IL10-induced Stat3 phosphorylation in BALB/c mouse CD11b-hi neutrophils by Phospho-Flow cytometry
[25] = Inhibition of JAK-mediated interferon-gamma-induced Stat1 phosphorylation in BALB/c mouse CD11b-hi neutrophils by Phospho-Flow cytometry
[26] = Inhibition of JAK-mediated IL6-induced Stat3 phosphorylation in BALB/c mouse CD11b-hi neutrophils by Phospho-Flow cytometry
[27] = Inhibition of JAK-mediated IL15-induced Stat5 phosphorylation in BALB/c mouse CD11b-hi neutrophils by Phospho-Flow cytometry
[28] = Inhibition of JAK-mediated IL7-induced Stat5 phosphorylation in BALB/c mouse CD11b-hi neutrophils by Phospho-Flow cytometry
[29] = Inhibition of JAK-mediated IL4-induced Stat5 phosphorylation in BALB/c mouse CD11b-hi neutrophils by Phospho-Flow cytometry
[30] = Inhibition of JAK-mediated IL6-induced Stat1 phosphorylation in BALB/c mouse CD11b-int macrophages by Phospho-Flow cytometry
[31] = Inhibition of JAK-mediated IL10-induced Stat3 phosphorylation in BALB/c mouse CD11b-int macrophages by Phospho-Flow cytometry
[32] = Inhibition of JAK-mediated interferon-gamma-induced Stat1 phosphorylation in BALB/c mouse CD11b-int macrophages by Phospho-Flow cytometry
[33] = Inhibition of JAK-mediated IL6-induced Stat3 phosphorylation in BALB/c mouse CD11b-int macrophages by Phospho-Flow cytometry
[34] = Inhibition of JAK-mediated IL15-induced Stat5 phosphorylation in BALB/c mouse CD11b-int macrophages by Phospho-Flow cytometry
[35] = Inhibition of JAK-mediated IL7-induced Stat5 phosphorylation in BALB/c mouse CD11b-int macrophages by Phospho-Flow cytometry
[36] = Inhibition of JAK-mediated IL4-induced Stat6 phosphorylation in BALB/c mouse CD11b-int macrophages by Phospho-Flow cytometry
[37] = Inhibition of JAK-mediated IL4-induced Stat5 phosphorylation in BALB/c mouse B cells by Phospho-Flow cytometry; assay type: cell-based
[38] = Inhibition of JAK-mediated IL6-induced Stat1 phosphorylation in BALB/c mouse CD4+ T cells by Phospho-Flow cytometry; assay type: cell-based; settings: T-cell
[39] = Inhibition of JAK-mediated IL10-induced Stat3 phosphorylation in BALB/c mouse CD4+ T cells by Phospho-Flow cytometry; assay type: cell-based; settings: T-cell
[40] = Inhibition of JAK-mediated interferon-gamma-induced Stat1 phosphorylation in BALB/c mouse CD4+ T cells by Phospho-Flow cytometry; assay type: cell-based; settings: T-cell

## CC(C)(C)c1nc2c3ccc(F)cc3c3c(=O)[nH]ccc3c2[nH]1
[1]
  Activity: Active
[2]
  IC50: < 20 µM
[3]
  IC50: > 20 µM

## C=C1C(=O)O[C@@H]2C[C@@H](C)[C@@H]3C=CC(=O)[C@@]3(C)[C@@H](O)[C@H]12
[4]
  inhibition: 25%
[5]
  inhibition: 25%
MAP kinase p38
  inhibition: 25%

## C=C1C(=O)O[C@@H]2C[C@@]3(C)CCC[C@H](C)C3=C[C@H]12
[4]
  inhibition: 25%
[5]
  inhibition: 25%
MAP kinase p38
  inhibition: 25%

## CC(=O)O[C@@H]1CO[C@H]2O[C@H]3[C@@H](C(C=O)=C[C@H](O)[C@@H]4C5=C(C(C)C)CC[C@]5(C)CC[C@@]34C)[C@@]2(O)C1=O
[4]
  inhibition: Active
[5]
  inhibition: > 65%
MAP kinase p38
  inhibition: 25%

## CC(=O)c1c(O)c(C)c(O)c(Cc2c(O)c3c(c(C(=O)/C=C/c4ccccc4)c2O)OC(C)(C)C=C3)c1O
[4]
  inhibition: 25%
[5]
  inhibition: > 65%
MAP kinase p38
  inhibition: 25%

## CC(C)=CC(=O)O[C@H]1[C@H]2[C@H](OC(=O)[C@H]2C)[C@H](O)[C@@H](C)[C@@H]2C=CC(=O)[C@]21C
[4]
  inhibition: 25%
[5]
  inhibition: > 65%
MAP kinase p38
  inhibition: 25%

## CC(C)c1oc(=O)cc2c1[C@@H](O)[C@H]1OC(=O)[C@@]3(C)[C@@H](O)[C@H]4O[C@H]4[C@@]2(C)[C@@H]13
[4]
  inhibition: inactive
[5]
  inhibition: inactive
MAP kinase p38
  inhibition: > 65%

## CC1CC(C)(O)CC(C(O)CC2CC(=O)NC(=O)C2)C1=O (stereo not drawn)
[4]
  inhibition: 25%
[5]
  inhibition: 25%
MAP kinase p38
  inhibition: 25%

## CC1OC(CC(=O)O)CC2=C1C(=O)c1c(O)cccc1C2=O (stereo not drawn)
[4]
  inhibition: 25%
[5]
  inhibition: > 65%
MAP kinase p38
  inhibition: 25%

## CC[C@H]1CN2CCc3cc(OC)c(OC)cc3[C@@H]2C[C@@H]1C[C@H]1NCCc2c1[nH]c1ccc(O)cc21
[4]
  inhibition: 25%
[5]
  inhibition: > 65%
MAP kinase p38
  inhibition: 25%

## CO[C@@H]1[C@@H](OC(=O)c2ccc(C)[nH]2)[C@@H](O)[C@@H](Oc2ccc3c(O)c(NC(=O)c4c[nH]c(C(=O)Nc5c(O)c6ccc(O[C@H]7OC(C)(C)[C@H](OC)[C@@H](OC(=O)c8ccc(C)[nH]8)[C@H]7O)c(C)c6oc5=O)c4C)c(=O)oc3c2C)OC1(C)C
[4]
  inhibition: inactive
[5]
  inhibition: inactive
MAP kinase p38
  inhibition: inactive

## C[C@H]1CC[C@@H]2[C@@H](C)[C@H]3[C@H](C[C@H]4[C@@H]5CC=C6C[C@@H](O[C@@H]7O[C@H](CO)[C@H](O)[C@H](O[C@@H]8O[C@H](CO)[C@@H](O)[C@H](O)[C@H]8O)[C@H]7O[C@H]7O[C@@H](C)[C@H](O)[C@@H](O)[C@H]7O)CC[C@]6(C)[C@H]5CC[C@]34C)N2C1
[4]
  inhibition: 25%
[5]
  inhibition: > 65%
MAP kinase p38
  inhibition: 25%

## C[S+]([O-])c1ccc(-c2nc(-c3ccc(F)cc3)c(-c3ccncc3)[nH]2)cc1 (stereo not drawn)
[1]
  Activity: Active

## O=C1C=C2C(=CCOC2O)O1 (stereo not drawn)
[4]
  inhibition: 25%
[5]
  inhibition: > 65%
MAP kinase p38
  inhibition: 25%

## C/C=C/C1=C(Cl)C(=O)[C@H](Cl)[C@]1(O)C(=O)OC [CRYTOSPORIOPSIN]
[6]
  IC50: < 20 µM
[4]
  inhibition: Active
[5]
  inhibition: > 65%
MAP kinase p38
  inhibition: 25%
[2]
  IC50: < 20 µM
[3]
  IC50: < 20 µM
[7]
  IC50: < 20 µM
[8]
  IC50: < 20 µM
[9]
  IC50: < 20 µM
[10]
  IC50: < 20 µM
[11]
  IC50: < 20 µM
[12]
  IC50: < 20 µM
[13]
  IC50: < 20 µM
[14]
  IC50: < 20 µM
[15]
  IC50: < 20 µM
[16]
  IC50: < 20 µM
[17]
  IC50: < 20 µM
[18]
  IC50: < 20 µM
[19]
  IC50: < 20 µM
[20]
  IC50: < 20 µM
[21]
  IC50: < 20 µM
[22]
  IC50: < 20 µM
[23]
  IC50: < 20 µM
[24]
  IC50: < 20 µM
[25]
  IC50: < 20 µM
[26]
  IC50: < 20 µM
[27]
  IC50: < 20 µM
[28]
  IC50: < 20 µM
[29]
  IC50: < 20 µM
[30]
  IC50: < 20 µM
[31]
  IC50: < 20 µM
[32]
  IC50: < 20 µM
[33]
  IC50: < 20 µM
[34]
  IC50: < 20 µM
[35]
  IC50: < 20 µM
[36]
  IC50: < 20 µM

## O=Nc1c(-c2c(O)[nH]c3ccccc23)[nH]c2ccccc12 [INDIRUBIN-3-MONOXIME]
[6]
  IC50: < 20 µM
[2]
  IC50: < 20 µM
[3]
  IC50: < 20 µM
[7]
  IC50: < 20 µM
[8]
  IC50: < 20 µM
[9]
  IC50: < 20 µM
[10]
  IC50: < 20 µM
[37]
  IC50: < 20 µM
[38]
  IC50: < 20 µM
[39]
  IC50: < 20 µM
[40]
  IC50: < 20 µM
[11]
  IC50: < 20 µM
[12]
  IC50: < 20 µM
[13]
  IC50: < 20 µM
[14]
  IC50: < 20 µM
[15]
  IC50: < 20 µM
[16]
  IC50: < 20 µM
[17]
  IC50: < 20 µM
[18]
  IC50: < 20 µM
[19]
  IC50: < 20 µM
[20]
  IC50: < 20 µM
[21]
  IC50: < 20 µM
[22]
  IC50: < 20 µM
[23]
  IC50: < 20 µM
[24]
  IC50: < 20 µM
[25]
  IC50: < 20 µM
[26]
  IC50: < 20 µM
[27]
  IC50: < 20 µM
[28]
  IC50: < 20 µM
[29]
  IC50: < 20 µM
[30]
  IC50: < 20 µM
[31]
  IC50: < 20 µM
[32]
  IC50: < 20 µM
[33]
  IC50: < 20 µM
[34]
  IC50: < 20 µM
[35]
  IC50: < 20 µM
[36]
  IC50: < 20 µM
